For this assay, the target named is T1, Recombinant arNOX (TM9SF4) (Homo sapiens, UniProt Q92544).
T1 construct: cloning of the soluble fragment of TM9SF4 was successful; Met-Ala-Ser leader from NdeI/NheI of pET11b (my inference from the forward primer CATATGGCTAGCATG); made in house; host or cells: E. coli BL21 (DE3), pET11b
T1 sequence (Q92544 24-252): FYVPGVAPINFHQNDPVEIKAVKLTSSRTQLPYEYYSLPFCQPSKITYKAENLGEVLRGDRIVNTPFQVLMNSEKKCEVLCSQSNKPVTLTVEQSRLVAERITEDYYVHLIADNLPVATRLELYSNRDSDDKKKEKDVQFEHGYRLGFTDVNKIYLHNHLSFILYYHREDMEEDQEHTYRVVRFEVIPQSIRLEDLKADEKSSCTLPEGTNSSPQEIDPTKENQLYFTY
The experiment in a line: arNOX activity: superoxide generation measured by reduction of ferricytochrome c. In kind it is biochemical. To be noted: test compounds added after 45 min, reaction continued for an additional 45 min; for inhibition of recombinant arNOX (TM9SF4) activity: extracts made in water unless otherwise indicated. The protocol:
Reduction of ferric cytochrome c by superoxide was employed as a standard measure of superoxide formation (Mayo, L. A. and Curnutte, J., 1990, Meth. Enzymol. 186:567-575; Butler, J. et al., 1982, J. Biol. Chem. 257:10747-10750). This method, when coupled to superoxide dismutase inhibition, is generally accepted for the measurement of superoxide generation. The assay consists of 150 μl buffy coat material in PBSG buffer (8.06 g NaCl, 0.2 g KCl, 0.18 g Na2HPO4, 0.13 g CaCl2, 0.1 g MgCl2, 1.35 g glucose dissolved in 1000 ml deionized water, adjusted to pH 7.4, filtered and stored at 4° C.). Reduction of ferricytochrome c by superoxide was monitored as the increase in absorbance at 550 nm, with reference at 540 nm (Butler et al., 1982). As a further control for the specificity of the arNOX activity, 60 units of superoxide dismutase (SOD) were added near the end of the assay to ascertain that the rate returned to base line. Rates were determined using a SLM Aminco DW-2000 spectrophotometer in the dual wavelength mode of operation.
Rates were determined using an SLM Aminco DW-2000 spectrophotometer (Milton Roy, Rochester, N.Y.) in the dual wave length mode of operation with continuous measurements over 1 min every 1.5 min. After 45 min, test compounds were added and the reaction was continued for an additional 45 min. After 45 min, a millimolar extinction coefficient of 19.1 cm^−1 was used for reduced ferricytochrome c. The results of the test compounds are provided below (Table 4) for experiments carried out with TM9SF4, but from the results of FIG. 7, it is concluded that all the arNOX isoforms have similar responses to the various compounds given below. Extracts were made of the compounds in water unless otherwise indicated.

For `O=C(O)c1cc(O)c(O)c(O)c1` [gallic acid], the “inhibition of recombinant arNOX (TM9SF4) activity” value came to 80%. As to `CCC(C)C(=O)OC1C(=O)OC2CC3C(C)=CC(=O)C(O)C3(C)C3C(O)C(O)C4(C)OCC23C14` (stereo not drawn) [similikalactone D], the “sensitivity of recombinant arNOX (TM9SF4) activity to the compound (in words)” value is listed as “resistant”. As to superoxide dismutase, the “inhibition of recombinant arNOX (TM9SF4) activity” value is on record as 78%.
